Experimental data as given in article PMC5841205, “Pharmacological targeting of apelin impairs glioblastoma growth” (Brain, 2017).
Positions of bridges follow the written chain, without caps; N, C: chain ends. Residues, ends and D or L forms follow the SMILES beside them.

Key:
[1] = Plasma pharmacokinetics after intraperitoneal administration; format: in vivo, mouse
Protocol: B. MM54 compound was solubilized in water and administered intraperitoneally (IP) at the dose of 3.6 mg/kg to healthy mice.
Mice (3/group) were sacrificed at 10 min, 30 min, 60 min, 2h, 4h, 6h, 8h and 24h post-injection. Plasma and brains were collected and further processed for LC-MS/MS analysis. B/P index is 0.24. AUC is area under the curve. n.d. stands for ‘not able to be

Solubility in vehicles = format: physicochemical
Protocol: Conditions Solubility Solubility […]
saline (10%) + hydroxypropyl-β-cyclodextrin >0.69 >1.20 […]
A. MM54 compound (1 mg) was re-suspended in the different vehicles for 24h, RT, under gentle rotation. Solutions were analysed by HPLC and concentrations calculated using DMSO-re-suspended MM54 as standard. […]

C57Bl/6J female mice = assay: Complete blood count; format: in vivo, mouse
Protocol: (§1) To test potential toxic effects of MM54 and MM193 in vivo, mice were administered 2 mg/kg of MM54, MM193 or vehicle bi-weekly for 4 weeks. At sacrifice, blood was taken for analysis and the heart, kidney, aorta and liver removed, weighed and fixed for histological analysis. For the glycaemic study, animals were starved for 6 h prior to sacrifice.
Total blood count DMSO MM54
Red blood cells (M/µl) 6,8 ± 0,9 7,5 ± 0,3
Mean corpuscular volume (fl) 46,4 ± 0,2 47,2 ± 0,4
Mean corpuscular haemoglobin (pg) 13,0 ± 0,0 13,2 ± 0,2
Mean corpuscular haemoglobin concentration (g/dl) 27,9 ± 0,1 27,9 ± 0,3 Red cell distribution width (%) 15,7 ± 0,2 16,1 ± 0,1
Table S5. Blood analysis after MM54 treatment
In order to test potential toxic effects of MM54 in vivo, C57Bl/6J female mice were administered 2 mg/kg of MM54 or DMSO vehicle, bi-weekly for 4 weeks. At sacrifice, blood was taken for analysis and the heart, kidney, aorta and liver removed, weighed and fixed for histological analysis (as shown in Figure S4). n=4 mice/group, 63 mean±SEM.

tumour-bearing mice = assay: Cardiac frequency, blood pressure and glycaemia, MM54; format: in vivo, mouse; settings: MM54 2 mg/kg bi-weekly for 4 weeks
Protocol: as §1
Figure 6 Pharmacological inhibition of APLNR by MM54 reduces xenograft progression. (A) Tumour-bearing mice were fasted for 6 h and the effect of either MM54 (2 mg/kg) or DMSO vehicle treatment on glycaemia measured via blood analysis. (B) Cardiac frequency and blood pressure were measured in random-fed tumour-bearing animals. (C) Nude mice were implanted with GSC#9 (5 × 10^5 cells) in each flank and treated with either DMSO vehicle or the APLNR antagonist (MM54, 2 mg/kg) bi-weekly from Week 4. Tumour volume was measured weekly until Week 11. n = 10/group. (D and E) Cryosections from GSC tumours were assessed for PECAM (red), Ki67 (green), NESTIN (green), SOX2 (green) and apoptosis (TUNEL). (F) Tumour sections were assessed for pS9-GSK3β staining in DMSO vehicle- and MM54-treated animals. Scale bars = 40 µm. […] All panels are representative of n = 3, unless specified.

[2] = tested on: panel of normal human and primary glioblastoma cell lines; assay: Cell viability (UptiBlue), cell line panel; format: cell-based; settings: MM54 2, 20 and 100 μM, 3 days; cardiomyocytes, HaCAT, CaCo2, hCMEC/D3, Jurkat, SH-SY5Y, SVGp12, glioblastoma lines
Protocol: Cell viability in response to MM54 was tested using the UptiBlue reagent (Interchim), a fluorometric/colorimetric growth indicator based on the detection of metabolic activity. Briefly, cells were seeded at a density of 2 × 10^3 per well, UptiBlue added at a concentration of 10% v/v and cells maintained at 37°C 5% CO2 until analysis. Absorbance was measured at Day 5 following treatment at 570 and 600 nm on a FLUOStar OPTIMA (BMG Labtech) plate reader, and the percentage of cell viability calculated according to the manufacturer’s instructions.
Figure 5 Pharmacological inhibition of APLNR by MM54 impairs the in vitro expansion of temozolomide-resistant GSCs. (A) Cell viability following treatment with DMSO, MM54 (2, 20 and 100 μM) or temozolomide (TMZ, 50 μM) was measured using UptiBlue in different cell types for 3 days. […] (B and C) Cell viability following treatment with DMSO or TMZ (100 μM) was measured using UptiBlue in GSCs #1, #4, #9, and #12 for 3 days. […] (D) GSC#1 viability was assessed following combined treatment with MM54 (0.2–20 μM) and TMZ (constant ratios TMZ:MM54 2.5:1, 5:1, and 10:1) in NS and human brain endothelial cell-conditioned medium (EC-CM) conditions. (E and F) Tumoursphere per field of view (fov) and ALDH activity were assessed in response to MM54 (0.2–100 μM) or TMZ (10–100 μM) treatment at Day 5. […]

[3] = mouse, plasma, healthy mice, IP 3.6 mg/kg in water, 3/group, LC-MS/MS
[4] = saline (10%) + hydroxypropyl-β-cyclodextrin, 1 mg, 24h, RT, gentle rotation, HPLC
[5] = saline (10%) + kolliphor EL, 1 mg, 24h, RT, gentle rotation, HPLC
[6] = saline (15%) + kolliphor HS15 + PEG (10%) + ethanol (5%), 1 mg, 24h, RT, gentle rotation, HPLC
[7] = saline (15%) + kolliphor HS15, 1 mg, 24h, RT, gentle rotation, HPLC
[8] = saline (NaCl 0.9%), 1 mg resuspended, 24h, RT, gentle rotation, HPLC
[9] = MM54 2 mg/kg bi-weekly, 4 weeks, female C57Bl/6J mice, n=4, mean±SEM

CC(C)C[C@@H]1NC(=O)[C@H](CCCNC(=N)N)NC(=O)[C@@H]2CCCN2C(=O)[C@H](CCCNC(=N)N)NC(=O)[C@@H](NC(=O)[C@H](Cc2c[nH]cn2)NC(=O)[C@H](CCCCN)NC(=O)[C@@H]2CSSC[C@H](N)C(=O)N[C@@H](CCCNC(=N)N)C(=O)N3CCC[C@H]3C(=O)N[C@@H](CCCNC(=N)N)C(=O)N[C@@H](CC(C)C)C(=O)N2)CSSC[C@@H](C(=O)O)NC1=O [MM54, cyclo(1–6)CRPRLC-KH-cyclo(9–14)CRPRLC] (H-CRPRLCKHCRPRLC-OH; disulfide 1-6, 9-14)
detection in plasma ([1]; healthy animals, intraperitoneal): detected in the plasma and the brain | Cmax (µM), plasma ([1]; healthy mice, IP 3.6 mg/kg in water, 3/group, LC-MS/MS): 0.6 µM | AUC [1, 3]: 1470 ng·h/mL | half-life [1, 3]: 2.37 ± 0.367 h | Cmax ([1]; mouse, plasma, healthy mice, IP 3.6 mg/kg in water, 3/group, LC-MS/MS, read-out: Cmax (µg.ml-1), plasma): 1.1 µg/mL | Tmax ([1]; mouse, plasma, healthy mice, IP 3.6 mg/kg in water, 3/group, LC-MS/MS, read-out: Time Cmax, plasma (converted)): 0.167 h | solubility (Solubility in vehicles; in the tested solutions (vehicles)): good solubility in the tested solutions | Solubility (mM), saline + hydroxypropyl-β-cyclodextrin (Solubility in vehicles; [4]): > 0.69 mM | Solubility (mg.ml-1), saline + hydroxypropyl-β-cyclodextrin (Solubility in vehicles; [4]): > 1.20 mg/mL | Solubility (mM), saline + kolliphor EL (Solubility in vehicles; [5]): > 0.60 mM | Solubility (mg.ml-1), saline + kolliphor EL (Solubility in vehicles; [5]): > 1.04 mg/mL | Solubility (mM), saline + kolliphor HS15 + PEG + ethanol (Solubility in vehicles; [6]): > 0.73 mM | Solubility (mg.ml-1), saline + kolliphor HS15 + PEG + ethanol (Solubility in vehicles; [6]): > 1.27 mg/mL | Solubility (mM), saline + kolliphor HS15 (Solubility in vehicles; [7]): > 0.69 mM | Solubility (mg.ml-1), saline + kolliphor HS15 (Solubility in vehicles; [7]): > 1.20 mg/mL | Solubility (mg.ml-1), saline (Solubility in vehicles; [8]): > 1.27 mg/mL | solubility at 24 h (Solubility in vehicles; [8]): > 0.73 mM | complete blood count vs vehicle (C57Bl/6J female mice; MM54 2 mg/kg bi-weekly for 4 weeks, healthy animals): no significant differences | Basophils (C57Bl/6J female mice; [9]): 0,19 ± 0,12 K/µl | Eosinophils (C57Bl/6J female mice; [9]): 0,52 ± 0,28 K/µl | Haemoglobin (C57Bl/6J female mice; [9]): 9,9 ± 0,6 g/dl | Hematocrit (C57Bl/6J female mice; [9]): 35,4 ± 1,9% | Lymphocytes (C57Bl/6J female mice; [9]): 7,50 ± 0,51 K/µl | Mean corpuscular haemoglobin (C57Bl/6J female mice; [9]): 13,2 ± 0,2 pg | Mean corpuscular haemoglobin concentration (C57Bl/6J female mice; [9]): 27,9 ± 0,3 g/dl | Mean corpuscular volume (C57Bl/6J female mice; [9]): 47,2 ± 0,4 fl | Mean platelet volume (C57Bl/6J female mice; [9]): 4,45 ± 0,16 fl | Monocytes (C57Bl/6J female mice; [9]): 0,42 ± 0,11 K/µl | Neutrophils (C57Bl/6J female mice; [9]): 2,56 ± 0,66 K/µl | Platelet (C57Bl/6J female mice; [9]): 301 ± 27 K/µl | Red blood cells (C57Bl/6J female mice; [9]): 7,5 ± 0,3 M/µl | Red cell distribution width (C57Bl/6J female mice; [9]): 16,1 ± 0,1% | cardiac frequency, blood pressure and glycaemic index (tumour-bearing mice): did not induce alterations to these parameters | toxicity (viability) in cell line panel [2]: no overtly toxic effects on any of the cell lines tested
